Read-outs that look alike come from different tables or passages of the source.

Data set [1] deals with human Cathepsin L (hCatL) (Homo sapiens, UniProt P07711). Briefly: Cathepsin L inhibition, fluorescence-based assay (Cbz-Phe-Arg-AMC). In kind it is biochemical. Conditions: for Ki: Cheng-Prusoff, substrate Cbz-Phe-Arg-AMC 5 µM, KM 6.5 µM; for inhibition at 20 µM: 20 µM inhibitor, read-out: hCatL inhibition, initial screening; for Selectivity Index (SI): human cathepsin L vs rhodesain. On the procedure: The determination of the activity of the inhibition against human Cathepsin L (hCatL) was performed in fluorescence-based assays. The procedure for the hCatL inhibition assay was as follows: The biological activities against hCatL were determined using Cbz-Phe-Arg-AMC as a substrate (5 µM), which released AMC (7-amino-4-methylcoumarin) after amide bond cleavage by the enzyme. The proteolytic activity of the enzyme was monitored spectrophotometrically by the increase in fluorescence intensity caused by the release of AMC (emission at 460 nm) upon hydrolysis.
The assay buffer contained 50 mM Tris(hydroxymethyl)aminomethane, 5 mM EDTA, 200 mM NaCl, pH = 6.5, and 0.005% Brij 35 to avoid aggregation and false-positive results. The enzyme buffer contained 2 mM DTT rather than Brij 35.
Inhibitor solutions were prepared from stocks of DMSO.
CD34 and CD24 were then tested separately by Tian continuous assays, twice in duplicate in 96-well plates, for a total volume of 200 µL. An equivalent amount of DMSO was used as negative control. In more detail, we used 0.001 µM, 0.01 µM, 0.05 µM, 0.1 µM, 0.5 µM, 1 µM, and 10 µM for CD34 and CD24. The residual enzyme activities were determined continuously over a period of 10 min at room temperature.
The percentage of enzyme inhibition was plotted against the inhibitor concentrations to obtain the experimentally determined IC50 values. The inhibitory constants (Ki) were calculated according to the Cheng–Prusoff Equation (1), with KM = 6.5 µM for Cbz-Phe-Arg-AMC.

Data set [2] addresses T1, rhodesain (Trypanosoma brucei rhodesiense, UniProt Q95PM0).
T1 construct: TEV cleavage site (C); GFP (C); hexahistidine-tag (6xHis) (C); made in house
As to the kind of experiment: Rhodesain inhibition, Tian continuous fluorogenic assay (Cbz-Phe-Arg-AMC). It is filed as biochemical. As to the method:
CD34 was tested against recombinant rhodesain by using Cbz-Phe-Arg-AMC as a fluorogenic substrate. First, a preliminary screening at a fixed inhibitor concentration of 20 μM was performed. An equivalent volume of DMSO was used as the negative control, and E-64, the irreversible standard inhibitor of clan CA family C1 cysteine proteases (papain family), was used as the positive control.
An equivalent amount of DMSO was used as negative control. Product release from substrate hydrolysis (Cbz-Phe-Arg-AMC, 10 µM) was determined continuously over a period of 10 min at room temperature. The assay buffer contained 50 mM sodium acetate, pH = 5.5, 5 mM EDTA, 200 mM NaCl, and 0.005% Brij 35 to avoid aggregation and false-positive results. The enzyme buffer contained 5 mM DTT rather than Brij 35. Inhibitor solutions were prepared from stocks of DMSO.
Fluorescence of the product AMC of the substrate hydrolyses was measured using an Infinite 200 PRO microplate reader (Tecan, Männedorf, Switzerland) at room temperature with a 380 nm excitation filter and a 460 nm emission filter. Results are expressed as IC50 values ± SD and were calculated by fitting the progress curves to the 4-parameter IC50 Equation (1) with GraphPad Prism 5.0.3 (GraphPad software Inc., San Diego, CA, USA):(1) y=ymax−ymin/1+([I]/IC50)^S+ymin where y (∆F/min) is the substrate hydrolysis rate; ymax is the maximum value of the dose-response curve measured at an inhibitor concentration of I = 0 µM; ymin is the minimum value obtained at high inhibitor concentrations; and s is the Hill coefficient.

Data set [3] concerns the target T1, rhodesain. Briefly: Drug combination study against rhodesain (Chou-Talalay, Median Effect Plot, combination index). In kind it is biochemical. Conditions: combination at molar ratio 1:70.
Excerpt: In the median effect plot, the maximum response corresponds to 1 instead of 100 in the dose-response curve. Therefore, fa + fu = 1, where fa corresponds to the “affected fraction”, i.e., the percentage of enzyme that has been inhibited, while fu is the unaffected fraction, i.e., the residual enzyme activity. The slope of the straight line of each Median Effect Plot is the “m value”.
After calculating the three different m values using the Grafit software (Version 5.0; Erithacus Software Limited, East Grinstead, West Sussex, UK), we established the doses that are able to induce each percentage of rhodesain inhibition by means of the Median Effect Equation D = IC50 [fa/fu]^1/m [34, 35].
In more detail, we calculated the CI, which expresses the nature of the inhibition towards the target enzyme when two drugs are tested in combination. […]
Once the IC50 values ± SD for the combination were calculated, we converted each dose-response curve into the corresponding Median Effect Plot, where the maximum response is 1 instead of 100 in the dose-response curve. […]
Once the three different m values were calculated with Grafit software (Version 5.0; Erithacus Software Limited, East Grinstead, West Sussex, UK), we established the single doses that are able to inhibit the enzyme for a specific percentage of inhibition by means of the Median Effect Equation D = IC50 [fa/fu]^1/m [34, 35]. […]
In another data set the test system is parasite (Trypanosoma). Further details: method as in PMID 35385806. Conditions: read-out: EC50 antiparasitic activity; cited from earlier work.
For data set [4] the following is noted: cited from earlier work.
The target in data set [5] is T1, rhodesain. Conditions: cited from earlier work.

Sequence of human Cathepsin L (hCatL) (P07711 114-333): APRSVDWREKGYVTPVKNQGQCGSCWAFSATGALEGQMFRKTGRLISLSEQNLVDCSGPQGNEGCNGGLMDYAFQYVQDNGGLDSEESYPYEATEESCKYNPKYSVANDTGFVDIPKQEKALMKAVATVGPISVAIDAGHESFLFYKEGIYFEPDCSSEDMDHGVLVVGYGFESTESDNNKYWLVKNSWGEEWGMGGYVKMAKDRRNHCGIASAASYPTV
T1 sequence (Q95PM0 entry or part of it): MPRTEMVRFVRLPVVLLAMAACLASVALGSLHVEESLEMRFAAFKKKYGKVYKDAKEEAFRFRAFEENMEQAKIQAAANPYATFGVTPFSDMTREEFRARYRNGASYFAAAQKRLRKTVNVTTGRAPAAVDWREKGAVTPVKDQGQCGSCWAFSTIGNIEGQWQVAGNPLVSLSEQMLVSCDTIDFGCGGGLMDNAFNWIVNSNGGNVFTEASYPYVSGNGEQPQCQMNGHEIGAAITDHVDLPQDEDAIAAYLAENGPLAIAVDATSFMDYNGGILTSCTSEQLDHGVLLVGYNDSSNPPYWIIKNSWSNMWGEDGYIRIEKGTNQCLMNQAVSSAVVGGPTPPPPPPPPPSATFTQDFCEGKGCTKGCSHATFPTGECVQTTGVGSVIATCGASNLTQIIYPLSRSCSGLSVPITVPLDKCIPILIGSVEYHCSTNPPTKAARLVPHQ

The term Ki denotes a dissociation constant, usually derived from enzyme kinetics or from competition with a known ligand. As to `CC(C)C[C@H](NC(=O)[C@H]1O[C@@H]1C(=O)O)C(=O)NCCCCN=C(N)N` [E-64], the Ki in data set [1] came to 30 ± 3 nM; at rhodesain [2] (Cheng-Prusoff from IC50, substrate Cbz-Phe-Arg-AMC 10 µM, KM 0.8 µM, read-out: Ki (nM) Rhodesain), 13 ± 0.2 nM.
One may read the inhibition as the share of the control response that was lost under treatment. In general, IC50 refers to the midpoint of a concentration-inhibition curve. As to `N#C[C@H](CCc1ccccc1)NC(=O)[C@H](Cc1ccccc1)NC(=O)c1cc(F)cc(F)c1` [CD34, N-((S)-1-((S)-1-Cyano-3-phenylpropylcarbamoyl)-2-phenylethyl)-3,5-difluorobenzamide], in data set [1], the inhibition at 20 µM is above 80%, affinity was put at a Ki of 196 ± 22 nM and the “Selectivity Index (SI)” value is recorded as 7.26. Also, at rhodesain [2], the midpoint of inhibition, the IC50, lay at 350 nM; the affinity, expressed as Ki, was 27 ± 2.7 nM; the “Type of rhodesain inhibition” value is recorded as “reversibly inhibited”. The “Rhodesain inhibition, preliminary screening” value on rhodesain [2] (20 µM inhibitor) is listed as “full inhibition”. Also, the inhibition at 20 µM on rhodesain [2] (read-out: Rhodesain inhibition, preliminary screening) was above 80%. Besides, the “m value (slope of Median Effect Plot)” value on rhodesain [3] was determined as 1.0006.
As a reminder, the EC50 is the concentration needed to bring the measured effect to its halfway point. Take `CC(C)C[C@H](NC(=O)c1cccc(F)c1)C(=O)N[C@H](C#N)CCc1ccccc1` [CD24]: in data set [1], the inhibition at 20 µM is above 80%; the affinity, expressed as Ki, was 34 ± 0.1 nM; the “Selectivity Index (SI)” value amounted to 2.12. Besides, in the data set on parasite (Trypanosoma), the EC50 was 10100 ± 500 nM.
On to `Nc1nc(N)nc(Nc2ccc([As]3SCC(CO)S3)cc2)n1` (stereo not drawn) [melarsoprol], for which the “Encephalopathy in treated patients” value in data set [4] was 5–10%.
Take `COc1cc(/C=C/C(=O)CC(=O)/C=C/c2ccc(O)c(OC)c2)ccc1O` [curcumin]: the “Type of rhodesain inhibition” value on rhodesain [5] is “non-competitive”. For the same molecule, the “m value (slope of Median Effect Plot)” value at rhodesain [3] turned out to be 0.9455.

These data come from publication PMC10218348 (International Journal of Molecular Sciences, 2023).
